# Measurements reported in ChEMBL document CHEMBL5506042, “Discovery of the Clinical Candidate IDOR-1117-2520: A Potent and Selective Antagonist of CCR6 for Autoimmune Diseases” (J Med Chem, 2024).
# What was measured:
# [1] = Cmax in Beagle dog at 1 mg/kg, iv; format: ADME, organism-based, Canis lupus familiaris; details: in vivo
# Cytochrome P450 3A4 [2] = target: T1, Cytochrome P450 3A4 (Homo sapiens, UniProt P08684); assay: Time dependent inhibition of CYP3A4 (unknown origin); format: ADME
# [3] = Intrinsic solubility of the compound at pH >11.5 using amorphous form of sample; format: physicochemical; details: read-out: Intrinsic_solubility
# [4] = AUC in Beagle dog at 10 mg/kg, po; format: ADME, organism-based, Canis lupus familiaris; details: in vivo
# [5] = Volume of distribution at steady state in Beagle dog at 1 mg/kg, iv; format: ADME, organism-based, Canis lupus familiaris; details: in vivo, read-out: Vdss
# Cytochrome P450 2D6 = Cytochrome P450 2D6 (Homo sapiens, UniProt P10635); assay: Inhibition of CYP2D6 (unknown origin); format: ADME
# Cytochrome P450 3A4 [6] = target: T1, Cytochrome P450 3A4; assay: Inhibition of CYP3A4 (unknown origin); format: ADME
# Cytochrome P450 3A4 [7] = target: T1, Cytochrome P450 3A4; assay: Induction of CYP3A4 (unknown origin); format: ADME
# [8] = Intrinsic clearance in human liver microsomes at 1 uM measured for 15 mins in presence of NADPH regenerating system measured per mg protein by LC-MS/MS analysis; format: ADME, Microsome; details: read-out: CLH
# [9] = Tmax in Wistar rat at 100 mg/kg, po; format: ADME, organism-based; details: in vivo
# [10] = Cmax in Beagle dog at 3 mg/kg, po; format: ADME, organism-based, Canis lupus familiaris; details: in vivo
# [11] = Solubility of the compound in aqueous medium at pH <[…]; format: physicochemical
# [12] = AUC in Beagle dog at 3 mg/kg, po; format: ADME, organism-based, Canis lupus familiaris; details: in vivo
# [13] = Intrinsic clearance in human hepatocytes in presence of ABT measured per million cells; format: ADME, cell-based, Hepatocyte; details: with ABT, read-out: CLH
# [14] = Solubility of the compound at pH <[…] at 37 degC; format: physicochemical
# Cytochrome P450 2C9 = Cytochrome P450 2C9 (Homo sapiens, UniProt P11712); assay: Inhibition of CYP2C9 (unknown origin); format: ADME
# [15] = Cmax in Wistar rat at 100 mg/kg, po; format: ADME, organism-based; details: in vivo
# [16] = target: ATP-dependent translocase ABCB1 (Homo sapiens, UniProt P08183); assay: Inhibition of human MDR1
# [17] = Apparent permeability across apical to basolateral side in dog MDCK-II cells; format: ADME, cell-based, Canis lupus familiaris
# [18] = Volume of distribution at steady state in Wistar rat at 3 mg/kg, iv; format: ADME, organism-based; details: in vivo, read-out: Vdss
# [19] = Half life in Beagle dog at 1 mg/kg, iv; format: ADME, organism-based, Canis lupus familiaris; details: in vivo
# [20] = Oral bioavailability in Wistar rat at 100 mg/kg; format: ADME, organism-based; details: in vivo
# [21] = AUC in Wistar rat at 100 mg/kg, po; format: ADME, organism-based; details: in vivo
# [22] = AUC in Beagle dog at 1 mg/kg, iv; format: ADME, organism-based, Canis lupus familiaris; details: in vivo
# HepaRG = assay: Cytotoxicity against human HepaRG cells assessed as leakage of intracellular LDH at 100 uM incubated for 24 hrs by spectrophotometry; format: toxicity, cell-based
# [23] = Intrinsic clearance in human hepatocytes measured per million cells; format: ADME, cell-based, Hepatocyte; details: read-out: CLH
# [24] = Fraction unbound in dog plasma at 1 uM by rapid equilibrium dialysis based LC-MS/MS analysis; format: ADME, cell-free, Canis lupus familiaris
# [25] = AUC in Wistar rat at 3 mg/kg, iv; format: ADME, organism-based; details: in vivo
# [26] = Half life in Wistar rat at 3 mg/kg, iv; format: ADME, organism-based; details: in vivo
# [27] = Clearance in Wistar rat at 3 mg/kg, iv; format: ADME, organism-based; details: in vivo
# [28] = Tmax in Beagle dog at 3 mg/kg, po; format: ADME, organism-based, Canis lupus familiaris; details: in vivo
# [29] = Oral bioavailability in Beagle dog at 10 mg/kg; format: ADME, organism-based, Canis lupus familiaris; details: in vivo
# [30] = Clearance in Beagle dog at 1 mg/kg, iv; format: ADME, organism-based, Canis lupus familiaris; details: in vivo
# [31] = Oral bioavailability in Beagle dog at 3 mg/kg; format: ADME, organism-based, Canis lupus familiaris; details: in vivo
# [32] = Fraction unbound in human plasma at 1 uM by rapid equilibrium dialysis based LC-MS/MS analysis; format: ADME, cell-free
# [33] = target: T2, Solute carrier organic anion transporter family member 1B3 (Homo sapiens, UniProt Q9NPD5); assay: Inhibition of OATP1B3 (unknown origin)
# T2 sequence (Q9NPD5 whole entry): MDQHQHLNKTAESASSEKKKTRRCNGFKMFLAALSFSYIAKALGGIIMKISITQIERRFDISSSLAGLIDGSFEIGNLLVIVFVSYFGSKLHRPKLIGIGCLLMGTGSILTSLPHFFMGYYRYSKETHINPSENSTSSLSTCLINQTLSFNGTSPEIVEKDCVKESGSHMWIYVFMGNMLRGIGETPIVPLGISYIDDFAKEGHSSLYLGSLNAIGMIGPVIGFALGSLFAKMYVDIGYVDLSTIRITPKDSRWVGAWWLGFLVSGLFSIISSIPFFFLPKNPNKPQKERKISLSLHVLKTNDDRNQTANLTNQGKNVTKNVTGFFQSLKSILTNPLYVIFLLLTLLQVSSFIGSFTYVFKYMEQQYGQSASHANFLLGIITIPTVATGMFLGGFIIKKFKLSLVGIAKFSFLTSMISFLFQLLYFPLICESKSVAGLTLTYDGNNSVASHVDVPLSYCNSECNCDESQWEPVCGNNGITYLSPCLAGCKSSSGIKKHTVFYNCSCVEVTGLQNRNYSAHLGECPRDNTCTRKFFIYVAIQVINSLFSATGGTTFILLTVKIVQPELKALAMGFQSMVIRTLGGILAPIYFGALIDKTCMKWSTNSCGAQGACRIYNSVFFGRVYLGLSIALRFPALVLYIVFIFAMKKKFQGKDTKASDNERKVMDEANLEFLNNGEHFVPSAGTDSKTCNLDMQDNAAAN
# [34] = Intrinsic clearance in dog liver microsomes at 1 uM measured for 15 mins in presence of NADPH regenerating system by LC-MS/MS analysis; format: ADME, Canis lupus familiaris, Microsome; details: read-out: CLH
# [35] = target: T3, Solute carrier organic anion transporter family member 1B1 (Homo sapiens, UniProt Q9Y6L6); assay: Inhibition of OATP1B1 (unknown origin)
# T3 sequence (Q9Y6L6 whole entry): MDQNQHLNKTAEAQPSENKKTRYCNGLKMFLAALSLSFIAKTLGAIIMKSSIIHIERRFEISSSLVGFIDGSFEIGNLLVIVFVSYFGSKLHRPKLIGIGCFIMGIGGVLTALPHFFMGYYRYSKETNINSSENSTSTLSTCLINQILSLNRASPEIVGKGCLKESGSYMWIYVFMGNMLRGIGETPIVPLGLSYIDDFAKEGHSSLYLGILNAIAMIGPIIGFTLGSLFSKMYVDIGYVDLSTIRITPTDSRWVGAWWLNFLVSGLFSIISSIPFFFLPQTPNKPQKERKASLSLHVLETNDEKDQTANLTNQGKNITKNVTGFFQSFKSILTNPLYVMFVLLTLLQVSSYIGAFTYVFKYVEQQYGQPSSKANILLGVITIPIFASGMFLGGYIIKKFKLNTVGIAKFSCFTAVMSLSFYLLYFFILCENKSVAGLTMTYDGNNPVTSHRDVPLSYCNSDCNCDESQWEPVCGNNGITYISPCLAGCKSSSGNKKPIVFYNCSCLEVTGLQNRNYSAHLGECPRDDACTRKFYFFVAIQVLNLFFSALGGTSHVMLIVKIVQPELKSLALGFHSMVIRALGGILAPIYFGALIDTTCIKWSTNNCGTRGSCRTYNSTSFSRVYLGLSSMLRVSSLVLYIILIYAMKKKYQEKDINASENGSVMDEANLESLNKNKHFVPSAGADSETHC
# [36] = Tmax in Beagle dog at 1 mg/kg, iv; format: ADME, organism-based, Canis lupus familiaris; details: in vivo
# T1 sequence (P08684 whole entry): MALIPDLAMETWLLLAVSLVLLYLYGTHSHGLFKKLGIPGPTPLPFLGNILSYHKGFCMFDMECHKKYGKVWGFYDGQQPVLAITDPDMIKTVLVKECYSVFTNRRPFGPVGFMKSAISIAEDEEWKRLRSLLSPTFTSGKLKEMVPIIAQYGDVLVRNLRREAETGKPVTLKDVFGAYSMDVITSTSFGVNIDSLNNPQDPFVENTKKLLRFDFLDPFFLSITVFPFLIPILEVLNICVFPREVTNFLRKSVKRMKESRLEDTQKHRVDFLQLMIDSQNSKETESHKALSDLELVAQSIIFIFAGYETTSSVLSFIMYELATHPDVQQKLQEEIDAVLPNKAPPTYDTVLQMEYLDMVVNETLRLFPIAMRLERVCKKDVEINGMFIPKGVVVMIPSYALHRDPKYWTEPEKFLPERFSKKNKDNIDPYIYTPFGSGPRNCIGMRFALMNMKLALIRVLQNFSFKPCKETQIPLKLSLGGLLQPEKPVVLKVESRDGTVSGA
# Chain of Cytochrome P450 2D6 (P10635 whole entry): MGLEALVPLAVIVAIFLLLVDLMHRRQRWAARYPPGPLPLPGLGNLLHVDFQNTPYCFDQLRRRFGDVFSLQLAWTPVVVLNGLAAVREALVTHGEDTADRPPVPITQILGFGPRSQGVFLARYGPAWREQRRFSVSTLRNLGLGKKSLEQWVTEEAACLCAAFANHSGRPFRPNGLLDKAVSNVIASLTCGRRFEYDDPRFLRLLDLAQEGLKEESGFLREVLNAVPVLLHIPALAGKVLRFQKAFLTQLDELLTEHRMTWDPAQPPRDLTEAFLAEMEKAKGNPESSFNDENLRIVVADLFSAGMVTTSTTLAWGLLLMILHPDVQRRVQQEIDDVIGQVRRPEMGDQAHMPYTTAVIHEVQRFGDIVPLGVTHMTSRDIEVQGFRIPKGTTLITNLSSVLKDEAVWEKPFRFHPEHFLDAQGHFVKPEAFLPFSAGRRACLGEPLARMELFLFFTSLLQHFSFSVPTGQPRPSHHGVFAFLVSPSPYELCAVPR
# Chain of Cytochrome P450 2C9 (P11712 whole entry): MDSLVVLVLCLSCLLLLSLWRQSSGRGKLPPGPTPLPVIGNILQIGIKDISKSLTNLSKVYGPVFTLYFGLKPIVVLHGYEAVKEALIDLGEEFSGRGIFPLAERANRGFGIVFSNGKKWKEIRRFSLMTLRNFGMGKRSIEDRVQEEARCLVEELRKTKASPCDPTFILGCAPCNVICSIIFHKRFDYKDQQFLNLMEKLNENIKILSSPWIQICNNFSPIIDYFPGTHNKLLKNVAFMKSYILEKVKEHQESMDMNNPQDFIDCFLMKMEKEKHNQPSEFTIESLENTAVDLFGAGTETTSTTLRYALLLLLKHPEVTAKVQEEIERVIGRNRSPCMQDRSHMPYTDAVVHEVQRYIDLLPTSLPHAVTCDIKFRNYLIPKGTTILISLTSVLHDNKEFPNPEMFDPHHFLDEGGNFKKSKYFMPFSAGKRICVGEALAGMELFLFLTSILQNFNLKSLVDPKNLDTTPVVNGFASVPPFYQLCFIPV
# Chain of ATP-dependent translocase ABCB1 (P08183 whole entry): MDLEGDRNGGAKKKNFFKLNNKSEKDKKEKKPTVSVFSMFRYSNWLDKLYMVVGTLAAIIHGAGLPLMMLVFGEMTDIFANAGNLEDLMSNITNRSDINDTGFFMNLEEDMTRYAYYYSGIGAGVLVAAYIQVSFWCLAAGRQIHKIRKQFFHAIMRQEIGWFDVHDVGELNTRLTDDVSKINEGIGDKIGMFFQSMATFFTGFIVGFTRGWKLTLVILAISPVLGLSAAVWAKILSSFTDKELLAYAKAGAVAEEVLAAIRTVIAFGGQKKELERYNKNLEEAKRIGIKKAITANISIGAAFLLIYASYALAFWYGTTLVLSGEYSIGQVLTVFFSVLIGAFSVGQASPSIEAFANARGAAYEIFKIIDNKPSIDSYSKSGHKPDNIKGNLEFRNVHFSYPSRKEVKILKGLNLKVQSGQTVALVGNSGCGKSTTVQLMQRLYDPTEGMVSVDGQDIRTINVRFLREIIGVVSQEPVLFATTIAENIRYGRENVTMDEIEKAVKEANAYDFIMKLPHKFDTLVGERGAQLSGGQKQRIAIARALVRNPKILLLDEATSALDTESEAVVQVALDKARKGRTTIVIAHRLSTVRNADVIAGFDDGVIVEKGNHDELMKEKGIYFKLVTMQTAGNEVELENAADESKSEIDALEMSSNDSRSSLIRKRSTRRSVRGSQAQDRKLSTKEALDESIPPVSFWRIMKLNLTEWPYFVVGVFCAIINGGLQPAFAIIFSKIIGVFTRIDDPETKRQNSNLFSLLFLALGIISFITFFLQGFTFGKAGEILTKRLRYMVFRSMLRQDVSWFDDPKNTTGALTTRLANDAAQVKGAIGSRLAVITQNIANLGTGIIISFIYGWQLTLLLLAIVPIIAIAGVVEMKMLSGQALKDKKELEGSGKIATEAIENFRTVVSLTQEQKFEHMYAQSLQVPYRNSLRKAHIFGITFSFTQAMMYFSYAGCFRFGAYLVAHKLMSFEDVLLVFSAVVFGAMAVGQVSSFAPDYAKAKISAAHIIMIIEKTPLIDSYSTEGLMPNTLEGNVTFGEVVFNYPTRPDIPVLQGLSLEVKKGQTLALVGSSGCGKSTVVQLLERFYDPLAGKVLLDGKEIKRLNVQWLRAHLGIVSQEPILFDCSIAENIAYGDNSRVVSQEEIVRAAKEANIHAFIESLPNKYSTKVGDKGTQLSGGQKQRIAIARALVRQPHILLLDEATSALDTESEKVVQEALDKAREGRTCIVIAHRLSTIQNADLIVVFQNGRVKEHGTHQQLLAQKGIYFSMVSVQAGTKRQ
compound,measurement,setting,value
CC(C)c1ccc([C@](O)(c2cccc(-c3noc(C(C)(C)O)n3)c2)C2(C)CN(C)C2)cc1,Cmax,[1],103 ng/mL
same,TDI,Cytochrome P450 3A4 [2],Not Active
same,solubility,[3],100 µg/mL
same,AUC,[4],4160 ng·h/mL
same,Vd,[5],11 L/kg
same,IC50,Cytochrome P450 2D6,0.15 µM
same,IC50,Cytochrome P450 3A4 [6],> 50 µM
same,Activity,Cytochrome P450 3A4 [7],Not Active
same,"microsomal CLint at […], 1 µM",[8],< 10 µL/min/mg
same,Tmax,[9],18 min
same,Cmax,[10],956 ng/mL
same,solubility,[11],> 100000 µg/mL
same,AUC,[12],332 ng·h/mL
same,hepatocyte CLint,[13],< 2 µL/min/1e6 cells
same,solubility,[14],> 10000 µg/mL
same,IC50,Cytochrome P450 2C9,> 50 µM
same,Cmax,[15],822 ng/mL
same,IC50,[16],19 µM
same,Papp A→B,[17],0.3 ×10⁻⁶ cm/s
same,Vd,[18],23 L/kg
same,half-life,[19],282 min
same,bioavailability,[20],19%
same,AUC,[21],2770 ng·h/mL
same,AUC,[22],436 ng·h/mL
same,Activity,HepaRG,Non-Toxic
same,hepatocyte CLint,[23],3.6 µL/min/1e6 cells
same,fraction unbound at 1 µM,[24],0.33
same,AUC,[25],443 ng·h/mL
same,half-life,[26],216 min
same,clearance,[27],110 mL/min/kg
same,Tmax,[28],48 min
same,bioavailability,[29],95%
same,clearance,[30],38 mL/min/kg
same,bioavailability,[31],25%
same,fraction unbound at 1 µM,[32],0.35
same,IC50,[33],> 50 µM
same,"microsomal CLint at […], 1 µM",[34],17 µL/min/mg
same,IC50,[35],> 50 µM
same,Tmax,[36],48 min
